PMC2151668 (The Journal of General Physiology, 2007)
Like-named read-outs stand apart in the source and are kept apart here. Peptide text beside a SMILES is read from it.

How the values were obtained:
Kv2.1 channel = molecular target: T1, Kv2.1 channel (Rattus norvegicus, UniProt P15387, A366D/I383M/K360G/K386V/S367A/T359S/Y384T); test: Two-electrode voltage-clamp recording of Kv2.1 expressed in oocytes; format: cell-based
T1 sequence (P15387 1-857 T359S/K360G/A366D/S367A/I383M/Y384T/K386V): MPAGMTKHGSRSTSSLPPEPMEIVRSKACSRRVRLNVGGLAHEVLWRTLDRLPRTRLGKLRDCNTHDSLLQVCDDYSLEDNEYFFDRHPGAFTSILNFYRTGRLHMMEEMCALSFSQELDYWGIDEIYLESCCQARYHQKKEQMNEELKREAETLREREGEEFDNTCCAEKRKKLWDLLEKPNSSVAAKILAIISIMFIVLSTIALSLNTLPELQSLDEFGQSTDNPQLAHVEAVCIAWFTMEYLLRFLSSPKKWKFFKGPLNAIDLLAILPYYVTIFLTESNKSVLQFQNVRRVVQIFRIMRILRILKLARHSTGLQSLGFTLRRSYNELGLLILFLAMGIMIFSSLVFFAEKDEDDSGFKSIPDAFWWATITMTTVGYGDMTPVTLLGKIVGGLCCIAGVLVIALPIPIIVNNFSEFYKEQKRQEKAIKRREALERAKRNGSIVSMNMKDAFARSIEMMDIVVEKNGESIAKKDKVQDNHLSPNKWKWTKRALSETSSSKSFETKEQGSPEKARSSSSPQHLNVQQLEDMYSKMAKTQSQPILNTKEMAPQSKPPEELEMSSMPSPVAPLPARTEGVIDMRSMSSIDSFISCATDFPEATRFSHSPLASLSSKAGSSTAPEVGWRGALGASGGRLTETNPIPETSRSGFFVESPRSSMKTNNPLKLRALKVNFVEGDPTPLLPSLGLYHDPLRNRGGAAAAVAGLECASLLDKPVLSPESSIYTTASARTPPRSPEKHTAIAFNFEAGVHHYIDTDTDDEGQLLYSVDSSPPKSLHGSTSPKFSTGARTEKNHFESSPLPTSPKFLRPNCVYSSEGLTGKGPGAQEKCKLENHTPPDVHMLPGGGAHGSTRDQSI

[1] = for F/F0 max: 1:1 POPG:POPC LUVs; for F/F0 max / λmax: HEB, 100 mM K+
[2] = Acrylamide quenching of W30 tryptophan fluorescence; format: physicochemical
[3] = toxin:lipid 2 μM:0.9 mM, HEB pH 7, n = 3

CC(C)C[C@@H]1NC(=O)[C@H](Cc2c[nH]cn2)NC(=O)[C@H](CCCCN)NC(=O)[C@@H]2CSSC[C@H](NC(=O)[C@@H](N)CCC(=O)O)C(=O)N[C@@H](CCCNC(=N)N)C(=O)N[C@@H](Cc3ccc(O)cc3)C(=O)N[C@@H](CC(C)C)C(=O)N[C@@H](Cc3ccccc3)C(=O)NCC(=O)NCC(=O)N[C@H]3CSSC[C@H](NC(=O)CNC1=O)C(=O)N[C@@H](CCCCN)C(=O)N[C@@H](Cc1ccccc1)C(=O)N[C@@H](CCCNC(=N)N)C(=O)N[C@@H](CC(=O)O)C(=O)N[C@@H](CCCCN)C(=O)N[C@@H](Cc1ccc(O)cc1)C(=O)N[C@H](C(=O)N[C@@H](C)C(=O)N[C@@H](Cc1c[nH]c4ccccc14)C(=O)N[C@@H](CC(=O)O)C(=O)N[C@@H](Cc1ccccc1)C(=O)N[C@H](C(=O)N[C@@H](Cc1ccccc1)C(=O)N[C@@H](CO)C(=O)O)[C@@H](C)O)CSSC[C@H](NC(=O)[C@H](CC(=O)O)NC(=O)[C@H](CO)NC(=O)[C@H]([C@@H](C)O)NC(=O)[C@H]([C@@H](C)O)NC(=O)[C@H](CCCCN)NC3=O)C(=O)N2 [Hanatoxin] (HELM PEPTIDE1{E.C.R.Y.L.F.G.G.C.K.T.T.S.D.C.C.K.H.L.G.C.K.F.R.D.K.Y.C.A.W.D.F.T.F.S}$PEPTIDE1,PEPTIDE1,2:R3-16:R3|PEPTIDE1,PEPTIDE1,9:R3-21:R3|PEPTIDE1,PEPTIDE1,15:R3-28:R3$$$V2.0; N-terminus and C-terminus assumed)
effect on Kv2.1 channel opening (Kv2.1 channel; 4 μM hanatoxin in external solution, oocytes, n = 3): pronounced inhibition of opening at negative voltages
time for channel activity to recover to control values after toxin removal (Kv2.1 channel; control (untreated) oocytes, 500 nM hanatoxin): ~1,000 s
F/F0 max ([1]; 1 mM free Ca2+, n = 3): 2.1 ± 0.1
F/F0 max ([1]; pH 7, n = 3): 2.0 ± 0.02
λmax ([1]; +POPG:POPC vesicles, 1 mM free Ca2+): 350.0 nm
λmax ([1]; +POPG:POPC vesicles, pH 7): 344.3 nm
Kx ([1]; as printed in legend, anionic vesicles, HEB with 100 mM KCl, n = 3): (5.3 ± 0.03) × 10^5
λmax ([1]; toxin in solution without lipid, 1 mM free Ca2+): 353.7 nm
blue shift in fluorescence emission spectrum ([1]; upon addition of 1:1 POPC:POPG vesicles (2.4 mM), HEB pH 7): 10.9 nm
Stern-Volmer constant (KSV), Solution ([2]; toxin 2 μM in solution, no lipid vesicles, n = 3): 48 ± 3 M⁻¹
Stern-Volmer constant (KSV), POPC, HEB [2, 3]: 10 ± 0.5 M⁻¹
Stern-Volmer constant (KSV), POPC:POPG, HEB [2, 3]: 7 ± 0.1 M⁻¹
Stern-Volmer constant (KSV), POPC:POPG, PB ([2]; toxin:lipid 2 μM:0.9 mM, PB (10 mM HEPES, 100 mM KCl, 1 mM MgCl2, 0.3 mM CaCl2, pH 7.6), n = 3): 18 ± 0.2 M⁻¹
Stern-Volmer constant (KSV), POPC, PB ([2]; toxin:lipid 2 μM:0.9 mM, PB pH 7.6, n = 3): 23 ± 0.7 M⁻¹
